8 compounds from the NIST ThermoML archive (doi:10.1016/j.fluid.2019.04.019) can be followed below.

Molecules are shown by their SMILES. ± gives the expanded uncertainty stated by the source.

For series [1] the following is noted: Crystal.
Series [2] is described as follows: Molar enthalpy of transition or fusion. Particulars: Crystal; DSC.

Consider `CC(O)C[N+](C)(C)C.[Cl-]` (stereo not drawn) [beta.-methylcholine chloride], for which, in series [1] (DTA), the Normal melting temperature worked out at 169 ± 0.5 °C. For the same compound, in series [2], the “Molar enthalpy of transition or fusion” value is 1.61 ± 0.0693 kcal/mol.
With `C[N+](C)(CCO)CCO.[Cl-]` [diethanoldimethylammonium chloride], the Normal melting temperature in series [1] (visual observation) is 290.6 ± 0.5 °C.
Consider `CCCC[n+]1ccccc1.[Cl-]` [1-butylpyridinium chloride], for which the Normal melting temperature in series [1] (DTA) turned out to be 132.2 ± 0.5 °C. In addition, the “Molar enthalpy of transition or fusion” value in series [2] is 6.25 ± 0.182 kcal/mol.
Regarding `C[N+](C)(C)CCO.[Br-]` [choline bromide], the Normal melting temperature in series [1] (visual observation) was determined as 308.5 ± 0.5 °C.
Turning to `CC[N+](CC)(CC)CC.[Cl-]` [tetraethylammonium chloride], the Normal melting temperature in series [1] (visual observation) was found to be 262.2 ± 0.5 °C.
Consider `CCC[N+]1(C)CCCCC1.[Cl-]` [1-methyl-1-propyl-piperidinium chloride], for which the Normal melting temperature in series [1] (visual observation) was found to be 225.2 ± 0.5 °C.
Regarding `C[N+](C)(C)Cc1ccccc1.[Cl-]` [trimethylbenzylammonium chloride], the Normal melting temperature in series [1] (visual observation) is 236.1 ± 0.5 °C.
`C[N+](C)(C)C.[Cl-]` [tetramethylammonium chloride]: in series [1] (visual observation), the Normal melting temperature worked out at 341.6 ± 0.5 °C.
